Assay results as given in US7148194B2, “Method to increase fibronectin” (Kimberly-Clark Worldwide, Inc., priority 2002, dated 2006).

Columns and labels:
MMP-9 = target: T1, MMP-9 (Homo sapiens, UniProt P14780); test: enzymatic hydrolysis of fluoresceinated collagen by MMP-9; format: biochemical; conditions: extended time assay, FIG. 8
T1 construct: Active MMP-9 enzyme was purchased from Calbiochem; purchased Calbiochem
Procedure: Two enzymatic assays were performed. The first assay measured the enzymatic hydrolysis of fluoresceinated collagen by MMP-9 as a function of time. […] The protein mixture was added to the collagen substrate, and was quickly mixed. Fluorescence emission intensity at 520 nm was measured as a function of time (excitation wavelength 495 nm) in a Shimadzu RF5301 fluorometer (Lakowicz, 1983). The fluorescein release assay was used to determine the inhibitory constant (Ki) of the peptide inhibitor ([I]) according to Segel (1993) via the use of Dixon plots (1/v vs. [I]), such that: slope=Km/(Vmax Ki [S]) (1) where Km is the Michaelis constant, Vmax is the reaction maximum velocity, and [S] is the substrate concentration.

neutrophils = test: neutrophil migration assay, transwell plate; format: cell-based, human; conditions: for Percent Neutrophil Migration exp. 1: 0.4% HSA; for Percent Neutrophil Migration exp. 2: 0.04% HSA
Procedure: Peptides were synthesized and purified by the Microchemical Facility at Emory University or by SigmaGenesis. All peptides were analyzed by mass spectrometry after HPLC to assess purity. Approximately 0.5–2.0 milligrams of peptide were used to make fresh stock solutions (5 mg/mL in HBSS/HSA) for each migration assay. The peptide stock solutions were used to make more dilute solutions (1 mg/mL, 100 μg/mL, 10 μg/mL, 1 μg/mL, 100 ng/mL, and 10 ng/mL) in HBSS/HSA for the assays.
Neutrophils were isolated from human blood (collected in Vacutainer™ tubes containing EDTA) by layering the blood/EDTA mixture (about 20 mL) on top of two layers of Histopaque™ 1119 (bottom layer, 18 mL) and 1077 (top layer, 7 mL) in 50 mL Falcon tubes. The tubes were centrifuged at 1800 rpm for 30 minutes (no brake). Four layers appeared in the tubes after the spin (from top to bottom layers): plasma, 1077, 1119, and red blood cells. The buffy coat between the plasma and 1077 layers contained lymphocytes, monocytes, and some platelets. The plasma layer, the buffy coat, and most of the 1077 layer was removed and discarded. The 1119 layer that contained the neutrophils was removed and was placed into a clean 50 mL tube. Dulbecco's Phosphate Buffered Saline (DPBS) was added to bring the volume to 50 mL. The cells were centrifuged for 15 minutes at 2100 rpm. The cells were resuspended in 10 mL of DPBS, transferred to 15 mL tubes, and centrifuged again for 10 minutes at 2000 rpm. This process was repeated to wash the cells a second time. After the supernatant was removed, the red blood cells were lysed by adding 6 mL of cold sterile water to each 15 mL of supernatant. Cells were mixed in the water for only 30 seconds. Six mL of cold 2% sterile saline was then added. Cells were centrifuged again for 10 minutes at 2000 rpm. The red supernatant (containing hemoglobin from red blood cells) was removed. This process of red blood cell lysis was repeated two more times to remove all of the red blood cells. After most of the red blood cells were removed, neutrophils were resuspended in 10 mL of HBSS/HSA for counting with trypan blue.
A neutrophil migration assay was performed in duplicate using a 24-well transwell plate (3 μm pore size for membrane). Transwell membranes were pre-moistened with 20–40 μL of HBSS/HSA (0.04–0.4%). Chemotactic solutions (500 μL) were added to the bottom of each well. […] Transwells were then placed into the chemotactic solutions. The plate was placed into the incubator (37° C., 5% CO2) for one hour. Cells that migrated through the membrane were counted using trypan blue.
In the neutrophil migration experiments, neutrophils that were isolated were approximately 95% viable. […]

[1] = system: collagen production in human skin fibroblast cell line; test: collagen production in human skin fibroblasts, EIA; format: cell-based; conditions: for Mean (collagen EIA, absorbance at 450 nm) / Median (collagen EIA, absorbance at 450 nm): 48 hours, n=2; for collagen production versus control: 10^−5 and 10^−6 M, P<0.001
Procedure: The stimulation response of the 19mer peptide on collagen production in the human skin fibroblast cell line (Clonetics, Walkersville, Md., normal human dermal fibroblasts, neonatal, catalog number CC-2509) was measured using Takara Biomedicals EIA assay kit (TAK MKO101) sold by Panvera (Madison, Wis.). The cells were first grown in a 96-well assay system using DMEM with 10% fetal bovine serum (FBS) both purchased from Sigma Chemical Co, St. Louis, Mo. Serum-free DMEM was used as a control. […] Plates were incubated for 24 hours at 37° C. in a humidified 5% CO2 atmosphere. After incubation, the medium was aspirated and the wells were rinsed twice with 100 μl of serum-free DMEM. […] In addition, 100 μl of vehicle (serum-free DMEM) was added to 4 wells as control. All wells were incubated for 48 hours at 37° C. in a humidified, 5% CO2 atmosphere.
The assay was performed using the recommended 20ul of the supernatant from each well of the 96-well plate. Standard buffer and stop solutions were freshly prepared before running the assay. 100ul of antibody-POD conjugate solution (supplied with the kit) was added into the wells using pre antibody coated 96 well plate (supplied with the kit). 20ul of standard and test solutions (from the other 96-well plate containing fibroblasts) were added to appropriate wells. Plate was mixed gently, sealed and incubated for three hrs. at 37° C.
After incubation each well was washed carefully four times with PBS buffer (400ul). All the wells were completely emptied at the end of washing from any liquid. 100ul of substrate solution (hydrogen peroxide and tetramethylbenzidine in a buffer solution, supplied with the kit) was added to each well and the plate was incubated for 15 minutes. At this point 100ul of stop solution (freshly prepared 1N H2SO4) was added to each well in the same order as substrate. The plate was gently mixed and absorbance was read at 450 nm. Results were analyzed statistically using one-way ANOVA.

[2] = system: normal human dermal fibroblasts; test: fibroblast proliferation, Cell Titer 96, OD 490 nm; format: cell-based; design: fibroblast cell density versus control: dose or concentration left out as unconfirmed; conditions: 28 hours
Procedure: A human skin fibroblast cell line (Clonetics, Walkersville, Md., normal human dermal fibroblasts, neonatal, catalog number CC-2509) was tested to ascertain whether exposure to a peptide would stimulate cellular proliferation. […] Plates were incubated for 24 hours at 37° C. in a humidified 5% CO2 atmosphere. After incubation, the medium was aspirated and the wells were rinsed twice with 100 μl of serum-free DMEM. […] In addition, 100 μl of vehicle (serum-free DMEM) was added to 10 wells as control. All wells were incubated for 28 hours at 37° C. in a humidified, 5% CO2 atmosphere. After incubation, 20 μl of Cell Titer 96 Aqueous One Solution was added to all wells. The plates were swirled gently and placed back in the incubator for 45 minutes and spectrophotometric absorbance was read at 490 nm. Results were analyzed statistically using one-way ANOVA.

T1 sequence (P14780 107-707 limits assumed): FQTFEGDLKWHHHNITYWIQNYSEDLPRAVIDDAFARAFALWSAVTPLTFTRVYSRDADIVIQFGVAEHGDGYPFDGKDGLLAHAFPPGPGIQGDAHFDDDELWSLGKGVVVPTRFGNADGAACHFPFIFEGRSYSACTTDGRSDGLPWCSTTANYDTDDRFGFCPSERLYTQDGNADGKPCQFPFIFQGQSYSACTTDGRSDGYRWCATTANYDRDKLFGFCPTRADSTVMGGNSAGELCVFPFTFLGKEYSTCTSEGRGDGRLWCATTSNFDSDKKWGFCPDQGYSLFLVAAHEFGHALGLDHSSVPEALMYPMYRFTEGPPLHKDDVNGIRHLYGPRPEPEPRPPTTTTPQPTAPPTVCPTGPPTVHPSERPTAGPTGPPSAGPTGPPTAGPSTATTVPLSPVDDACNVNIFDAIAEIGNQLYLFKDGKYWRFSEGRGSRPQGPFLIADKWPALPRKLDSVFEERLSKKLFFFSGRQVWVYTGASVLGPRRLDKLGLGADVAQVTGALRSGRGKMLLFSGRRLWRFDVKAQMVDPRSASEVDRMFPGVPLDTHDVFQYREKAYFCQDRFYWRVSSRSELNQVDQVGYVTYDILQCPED

SMILES: CC(C)[C@H](NC(=O)[C@H](CC(=O)O)NC(=O)[C@@H]1CCCN1C(=O)[C@H](CC(N)=O)NC(=O)CNC(=O)[C@H](CS)NC(=O)[C@H](CCCNC(=N)N)NC(=O)[C@@H]1CCCN1)C(=O)N[C@@H](C)C(=O)N[C@@H](CC(N)=O)C(=O)N[C@@H](Cc1ccc(O)cc1)C(=O)N[C@@H](CC(N)=O)C(=O)N[C@@H](Cc1ccccc1)C(=O)N[C@@H](Cc1ccccc1)C(=O)N1CCC[C@H]1C(=O)N[C@@H](CCCNC(=N)N)C(=O)N[C@@H](CCCCN)C(=O)N1CCC[C@H]1C(=O)N[C@@H](CCCCN)C(=O)O [Peptide 19-mer]
- time over which MMP-9 catalyzed hydrolysis of collagen is effectively inhibited (MMP-9): > 1000 min
- Percent Neutrophil Migration exp. 1 (neutrophils; 1 μg/mL): 32%
- Percent Neutrophil Migration exp. 1 (neutrophils; 10 μg/mL): 22%
- Percent Neutrophil Migration exp. 2 (neutrophils; 100 μg/mL): 0%
- Percent Neutrophil Migration exp. 1 (neutrophils; 100 μg/mL): 29%
- effect on neutrophil migration (neutrophils; 1 mg/mL to 1 μg/mL): did not have an effect on neutrophil migration
- Percent Neutrophil Migration exp. 2 (neutrophils; 1 mg/mL): 4%
- Percent Neutrophil Migration exp. 1 (neutrophils; 1 mg/mL): 23%
- Mean (collagen EIA, absorbance at 450 nm) ([1]; 1×10^−5 M): 0.8365
- Median (collagen EIA, absorbance at 450 nm) ([1]; 1×10^−5 M): 0.8365
- Mean (collagen EIA, absorbance at 450 nm) ([1]; 1×10^−6 M): 0.8315
- Median (collagen EIA, absorbance at 450 nm) ([1]; 1×10^−6 M): 0.8315
- collagen production versus control [1]: increased collagen production
- collagen production versus control ([1]; listed as 19mer peptide): statistically significant amounts
- fibroblast cell growth versus control ([2]; 1×10^−4 M, P<0.001): even greater cell growth
- fibroblast cell proliferation versus control ([2]; 1×10^−6 M, P<0.05): a small amount of cell proliferation
- fibroblast cell density versus control ([2]; (19mer5), P<0.01): significantly greater cell density
